Test results: PMC7070036, “An amber obligate active site-directed ligand evolution technique for phage display” (Nature Communications, 2020)
Values joined by “and” are separate entries in the source; they are usually repeats but may differ in a detail not shown here. Identical values can stand only once. Non-standard residues stand in square brackets, D forms with d. Residues, ends and D or L forms follow the SMILES beside them. Lys(thiomyristoyl) = CCCCCCCCCCCCCC(=S)NCCCC[C@H](N)C(=O)O

B1: recombinant human SIRT2 (enzyme)
chain: MAEPDPSHPLETQAGKVQEAQDSDSDSEGGAAGGEADMDFLRNLFSQTLSLGSQKERLLDELTLEGVARYMQSERCRRVICLVGAGISTSAGIPDFRSPSTGLYDNLEKYHLPYPEAIFEISYFKKHPEPFFALAKELYPGQFKPTICHYFMRLLKDKGLLLRCYTQNIDTLERIAGLEQEDLVEAHGTFYTSHCVSASCRHEYPLSWMKEKIFSEVTPKCEDCQSLVKPDIVFFGESLPARFFSCMQSDFLKVDLLLVMGTSLQVQPFASLISKAPLSTPRLLINKEKAGQSDPFLGMIMGLGGGMDFDSKKAYRDVAWLGECDQGCLALAELLGWKKELEDLVRREHASIDAQSGAGVPNPSTSASPKKSPPPAKDEARTTEREKPQ

Key:
[1] = biological target: T1, SIRT1 (Homo sapiens, UniProt Q96EB6); experiment: Continuous fluorogenic sirtuin inhibition assay, SIRT1; format: biochemical; settings: mean ± SD of two independent experiments
T1 sequence (Q96EB6 1-747): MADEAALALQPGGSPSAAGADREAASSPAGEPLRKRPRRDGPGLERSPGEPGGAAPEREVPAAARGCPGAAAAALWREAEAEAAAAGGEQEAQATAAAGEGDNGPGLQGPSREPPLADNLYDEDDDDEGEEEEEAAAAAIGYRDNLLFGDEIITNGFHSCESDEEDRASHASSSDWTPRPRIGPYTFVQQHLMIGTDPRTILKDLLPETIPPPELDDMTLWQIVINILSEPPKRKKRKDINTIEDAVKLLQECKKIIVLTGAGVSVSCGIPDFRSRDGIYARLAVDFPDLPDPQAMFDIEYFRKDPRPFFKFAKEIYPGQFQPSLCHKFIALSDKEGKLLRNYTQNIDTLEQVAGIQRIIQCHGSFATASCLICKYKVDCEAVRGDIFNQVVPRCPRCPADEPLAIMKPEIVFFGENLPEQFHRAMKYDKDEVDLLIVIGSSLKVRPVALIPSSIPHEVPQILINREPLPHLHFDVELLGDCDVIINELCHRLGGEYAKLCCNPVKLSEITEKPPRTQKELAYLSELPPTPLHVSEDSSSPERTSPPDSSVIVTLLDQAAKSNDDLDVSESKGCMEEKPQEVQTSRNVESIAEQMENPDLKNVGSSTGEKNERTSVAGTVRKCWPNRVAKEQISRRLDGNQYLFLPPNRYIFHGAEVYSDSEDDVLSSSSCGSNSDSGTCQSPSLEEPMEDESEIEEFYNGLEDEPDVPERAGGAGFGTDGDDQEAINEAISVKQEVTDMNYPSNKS
Method: The continuous assay for comparing isoform specificity of S2P04 was performed using the universal fluorogenic sirtuin substrate described by Schuster et al.[41]. Briefly, the inhibition reactions were performed in 50-µL volumes at 37 °C in black, half-area, 96-well plates. The sirtuin enzyme (0.25 µM) was preincubated with different concentrations of the peptide S2P04 (0.0064–50 µM for SIRT1 and SIRT2, 0.5–100 µM for SIRT3) or TB (0.16–150 µM for SIRT1–SIRT3), and 1 mM NAD^+ in assay buffer (20 mM Tris, pH 7.8, 150 mM NaCl, 5 mM MgCl2, and 1 mM DTT) for 15 min. Following incubation, the reaction started with the addition of the fluorogenic substrate (5 µM), and product formation was monitored by measuring the fluorescence intensity every 20 s for 5 min (SIRT2) or 30 min (SIRT1 and SIRT3) in a BioTek Synergy H1 microplate reader at λex = 320 nm and λem = 408 nm (gain = 130 and read height = 7 mm). Initial rates of product formation were determined by a linear regression of the plot of fluorescence intensity vs. time and normalized relative to 0% (max inhibitor) and 100% (no inhibitor) controls. The assay was repeated to determine the IC50 values of all BuK peptides for SIRT2. IC50 values were determined by nonlinear regression of the plot of the normalized initial rate vs. inhibitor concentration using GraphPad Prism. The determined IC50 values are provided in Supplementary Table 2, and inhibition curves can be seen in Supplementary Fig. 20.

[2] = biological target: T2, SIRT2 (Homo sapiens, UniProt Q8IXJ6); experiment: SIRT2 inhibition assay for thiomyristoyl peptides; format: biochemical
T2 sequence (Q8IXJ6 1-389): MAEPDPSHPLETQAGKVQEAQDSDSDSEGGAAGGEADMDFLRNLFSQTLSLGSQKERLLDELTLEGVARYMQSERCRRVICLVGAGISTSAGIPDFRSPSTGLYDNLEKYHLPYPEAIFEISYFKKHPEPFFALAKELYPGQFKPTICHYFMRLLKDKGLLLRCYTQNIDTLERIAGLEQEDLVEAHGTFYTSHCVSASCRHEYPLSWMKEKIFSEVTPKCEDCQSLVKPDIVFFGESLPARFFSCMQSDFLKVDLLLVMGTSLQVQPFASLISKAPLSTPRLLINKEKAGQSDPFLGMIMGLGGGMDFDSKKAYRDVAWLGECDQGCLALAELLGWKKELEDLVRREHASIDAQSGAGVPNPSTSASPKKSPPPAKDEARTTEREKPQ
Method: Assays were performed in 40-µL volumes at 37 °C in black, 384-well plates. […] Following incubation, the reaction started with the addition of the fluorogenic substrate (5 µM), and product formation was monitored by measuring the fluorescence intensity every 20 s for 5 min (SIRT2) in a BioTek Synergy H1 microplate reader at λex = 320 nm and λem = 408 nm (gain = 130 and read height = 7 mm). Initial rates were determined using the plot of fluorescence vs. time for linear portions of each curve. IC50 values were then determined using GraphPad Prism to fit a nonlinear regression to the normalized rates vs. inhibitor concentration.

[3] = biological target: T2, SIRT2; experiment: SIRT2 inhibition assay, no preincubation; format: biochemical
Method: The inhibition assay was performed using a universal continuous sirtuin substrate. Assays were performed in 40-µL volumes at 37 °C in black, 384-well plates. Five micrometers of substrate was incubated with different concentrations of peptide or TM (0.5–1000 nM in DMF, 20% DMF final concentration) for 2 min in assay buffer (20 mM Tris, pH 7.8, 150 mM NaCl, 5 mM MgCl2, 1 mM DTT, and 1 mM NAD^+). Following incubation, the reaction started with the addition of SIRT2 (10 nM), and product formation was monitored by measuring the fluorescence intensity every 20 s for 10 min (SIRT2) in a BioTek Synergy H1 microplate reader at λex = 320 nm and λem = 408 nm (gain = 130 and read height = 7 mm). Initial rates were determined using the plot of fluorescence vs. time for linear portions of each curve. The IC50 value was determined using GraphPad Prism to fit a nonlinear regression to the normalized rates vs. inhibitor concentration (Supplementary Fig. 30).

[4] = biological target: FITC-conjugated S2P03; experiment: fluorescence polarisation; SIRT2 serially diluted from 5 uM to 1 nM (24 uL) plus 1 uL of 250 nM FITC-peptide; 50 mM Tris, 137 mM NaCl, 2.7 mM KCl, 1 mM MgCl2, 1 mM DTT, 0.01% Triton X-100, pH 8.0; 37 C for 15-30 min; 384-well plate

| Molecule | IC50 [1] | IC50 ([2]; 10 nM SIRT2, 15 min preincubation, 5 µM substrate, n = 2) | activity at 0.000465917 µM ([2]; inhibitor 0.465917 nM) | %Activity, SIRT2 ([2]; inhibitor 0.465917 nM, 0.000465917 µM) | %Activity, SIRT2 ([2]; inhibitor 0.931834 nM, 0.000931834 µM) | activity at 0.00186367 µM ([2]; inhibitor 1.86367 nM) | %Activity, SIRT2 ([2]; inhibitor 1.86367 nM, 0.00186367 µM) | activity at 0.00372734 µM ([2]; inhibitor 3.72734 nM) | %Activity, SIRT2 ([2]; inhibitor 3.72734 nM, 0.00372734 µM) | %Activity, SIRT2 ([2]; inhibitor 7.45468 nM, 0.00745468 µM) | activity at 0.0149094 µM ([2]; inhibitor 14.9094 nM) | %Activity, SIRT2 ([2]; inhibitor 14.9094 nM, 0.0149094 µM) | %Activity, SIRT2 ([2]; inhibitor 477.099 nM, 0.477099 µM) | %Activity, SIRT2 ([2]; inhibitor 954.198 nM, (Activity/Activity w/o inhibitor)*100, single trials, 0.954198 µM) | change in IC50 without preincubation of enzyme [3] | Kd [4] |
| --- | --- | --- | --- | --- | --- | --- | --- | --- | --- | --- | --- | --- | --- | --- | --- | --- |
| CCCCCCCCCCCCCC(=S)NCCCC[C@H](NC(=O)[C@@H](NC(=O)[C@@H](NC(=O)[C@@H](N)CS)[C@@H](C)O)C(C)C)C(=O)N[C@H](C(=O)N[C@@H](CO)C(=O)N[C@@H](CC(C)C)C(N)=O)[C@@H](C)O [S2P03-tMyK] (H-CTV[Lys(thiomyristoyl)]TSL-NH2) | 400 ± 100 nM | 10 ± 3 nM | 102% | 98.0615% | 113.937% and 81.1704% | 99.7% | 95.1685% | 96.6% | 82.1027% | 52.8299% and 73.9018% | 40.8% | 45.2416% | 3.151% and -3.151% | 11.9872% and 2.232% | insignificant change in IC50 | – |
| B1 | – | – | – | – | – | – | – | – | – | – | – | – | – | – | – | 49 nM |
